Converted amounts (≈) assume the structure as drawn. The source made the active and inactive calls. The calls are words filed in the database; no cut-off is given here.
How the values were obtained:
[1] = Inhibition of ND1 transcript level in human A2780 cells at 500 nM measured after 12 hrs by RT-qPCR analysis relative to control; type: functional
[2] = system: A2780; experiment: Inhibition of colony formation in human A2780 cells assessed as reduction in number of colonies at upto 500 nM incubated for 14 days by crystal violet staining based analysis; type: functional, cell-based; settings: time 14.0 day
[3] = system: A2780; experiment: Induction of cell cycle arrest in human A2780 cells assessed as accumulation of cells at G1 phase at 200 nM measured after 96 hrs by PI staining based flow cytometry analysis (reference value: 80.81%); type: functional
[4] = system: A2780; experiment: Induction of cell cycle arrest in human A2780 cells assessed as accumulation of cells at S phase at 100 nM measured after 96 hrs by PI staining based flow cytometry analysis (reference value: 14.7%); type: functional
[5] = system: A2780; experiment: Induction of cell cycle arrest in human A2780 cells assessed as accumulation of cells at S phase at 200 nM measured after 96 hrs by PI staining based flow cytometry analysis (reference value: 14.7%); type: functional
[6] = system: A2780; experiment: Induction of cell cycle arrest in human A2780 cells assessed as accumulation of cells at G2 phase at 50 nM measured after 96 hrs by PI staining based flow cytometry analysis (reference value: 4.49%); type: functional
[7] = system: A2780; experiment: Induction of cell cycle arrest in human A2780 cells assessed as accumulation of cells at G2 phase at 100 nM measured after 96 hrs by PI staining based flow cytometry analysis (reference value: 4.49%); type: functional
[8] = system: A2780; experiment: Induction of apoptosis in human A2780 cells assessed as early apoptotic cells at 100 nM incubated for 96 hrs by Annexin-V/FITC and PI staining based flow cytometry analysis (reference value: 14.14%); type: functional
[9] = system: A2780; experiment: Induction of apoptosis in human A2780 cells assessed as late apoptotic cells at 50 nM incubated for 96 hrs by Annexin-V/FITC and PI staining based flow cytometry analysis (reference value: 3.79%); type: functional
[10] = system: A2780; experiment: Induction of apoptosis in human A2780 cells assessed as late apoptotic cells at 100 nM incubated for 96 hrs by Annexin-V/FITC and PI staining based flow cytometry analysis (reference value: 3.79%); type: functional
[11] = system: A2780; experiment: Induction of apoptosis in human A2780 cells assessed as late apoptotic cells at 200 nM incubated for 96 hrs by Annexin-V/FITC and PI staining based flow cytometry analysis (reference value: 3.79%); type: functional
[12] = system: A2780; experiment: Induction of apoptosis in human A2780 cells assessed as necrotic cells at 100 nM incubated for 96 hrs by Annexin-V/FITC and PI staining based flow cytometry analysis (reference value: 2.07%); type: functional
[13] = system: A2780; experiment: Induction of mitochondrial membrane potential changes in human A2780 cells assessed as increase in Q3 phase at 0 to 5 uM measured after 96 hrs by flow cytometry analysis; type: functional, cell-based; settings: dose 0-5 µM
[14] = system: A2780; experiment: Induction of mitochondrial membrane potential changes in human A2780 cells at upto 500 nM measured after 96 hrs by JC-1 staining based immunofluorescence assay; type: functional, cell-based
[15] = system: A2780; experiment: Induction of intracellular ROS generation in human A2780 cells at 0 to 5 uM by DCFH-DA staining based microscopic analysis; type: functional, cell-based; settings: dose 0-5 µM
[16] = system: A2780; experiment: Downregulation of NDUFB8 level in human A2780 cells by Western blot analysis; type: functional, cell-based; settings: dose <= 500.0 nM
[17] = system: A2780; experiment: Inhibition of MT-ND2 expression in human A2780 cells at 100 nM incubated for 12 hrs by RNA sequencing analysis; type: functional, cell-based
[18] = system: A2780; experiment: Inhibition of MT-ND4 expression in human A2780 cells at 100 nM incubated for 12 hrs by RNA sequencing analysis; type: functional, cell-based
[19] = system: A2780; experiment: Inhibition of MT-ND5 expression in human A2780 cells at 100 nM incubated for 12 hrs by RNA sequencing analysis; type: functional, cell-based
[20] = system: A2780; experiment: Inhibition of MT-CYB expression in human A2780 cells at 100 nM incubated for 12 hrs by RNA sequencing analysis; type: functional, cell-based
[21] = system: MDA-MB-468; experiment: Antiproliferative activity against human MDA-MB-468 cells incubated for 168 hrs by SRB method; type: functional, cell-based; settings: MDA-MB-468, 168 h
[22] = target: T1, Cytochrome P450 3A4 (Homo sapiens, UniProt P08684); experiment: Inhibition of […] (unknown origin) using midazolam as substrate in presence of NADPH by LC/MS/MS analysis; type: ADME
[23] = target: T1, Cytochrome P450 3A4; experiment: Inhibition of […] (unknown origin) using testosterone as substrate in presence of NADPH by LC/MS/MS analysis; type: ADME
[24] = Solubility in PBS at pH 7.4; type: physicochemical
[25] = Cmax in ICR mouse at 1 mg/kg, iv measured upto 24 hrs by LC-MS/MS analysis; type: ADME, organism-based; design: time < 24 hrs, dose 1 mg/kg, route iv; settings: in vivo
[26] = Cmax in ICR mouse at 10 mg/kg, po measured upto 24 hrs by LC-MS/MS analysis; type: ADME, organism-based; design: time < 24 hrs, dose 10 mg/kg, route po; settings: in vivo
[27] = AUC (0 to t) in ICR mouse at 10 mg/kg, po measured upto 24 hrs by LC-MS/MS analysis; type: ADME, organism-based; design: dose 10 mg/kg, time < 24 hrs, route po; settings: in vivo
[28] = Clearance in ICR mouse at 1 mg/kg, iv measured upto 24 hrs by LC-MS/MS analysis; type: ADME, organism-based; settings: in vivo
[29] = Half life in ICR mouse at 10 mg/kg, po measured upto 24 hrs by LC-MS/MS analysis; type: ADME, organism-based; settings: in vivo
[30] = system: A2780; experiment: Inhibition of mitochondrial transcript in human A2780 cells by RT-qPCR analysis; type: functional, cell-based; settings: dose 0.01-1 µM
[31] = system: A2780; experiment: Inhibition of mitochondrial transcript in human A2780 cells assessed as decrease in COX1 expression by RT-qPCR analysis; type: functional, cell-based
[32] = system: A2780; experiment: Antitumor activity against human A2780 cells xenografted in BALB/c nude mouse model assessed as decrease in tumor volume administered po daily and measured after 27 days; type: functional, organism-based; settings: dose 50-100 mg/kg, time 27.0 day
[33] = system: A2780; experiment: Antitumor activity against human A2780 cells xenografted in BALB/c nude mouse model assessed as reduction in tumor weight at 50 mg/kg, po administered daily and measured after 27 days relative to control; type: functional; design: scale not given: the % may be the effect or the level left; settings: time 27 day
[34] = system: A2780; experiment: Antitumor activity against human A2780 cells xenografted in BALB/c nude mouse model assessed as reduction in tumor weight at 100 mg/kg, po administered daily and measured after 27 days relative to control; type: functional; design: scale not given: the % may be the effect or the level left; settings: time 27 day
[35] = system: A2780; experiment: Antitumor activity against human A2780 cells xenografted in BALB/c nude mouse model assessed as reduction in NDUFB level at 100 mg/kg, po by immunoblotting analysis; type: functional, organism-based
[36] = system: A2780; experiment: Antitumor activity against human A2780 cells xenografted in BALB/c nude mouse model assessed as effect on heart 100 mg/kg, po measured after 27 days; type: functional, organism-based; settings: time 27.0 day
[37] = system: A2780; experiment: Antitumor activity against human A2780 cells xenografted in BALB/c nude mouse model assessed as effect on liver 100 mg/kg, po measured after 27 days; type: functional, organism-based; settings: time 27.0 day
[38] = Toxicity in Balb/c mouse assessed as effect on lung at 100 mg/kg by H and E staining based analysis; type: organism-based; settings: in vivo
[39] = Acute toxicity in Balb/c mouse assessed as effect on liver 100 mg/kg measured after 27 days by H and E staining based analysis; type: organism-based; settings: in vivo, 648 h, time 27 day

T1 sequence (P08684 whole entry): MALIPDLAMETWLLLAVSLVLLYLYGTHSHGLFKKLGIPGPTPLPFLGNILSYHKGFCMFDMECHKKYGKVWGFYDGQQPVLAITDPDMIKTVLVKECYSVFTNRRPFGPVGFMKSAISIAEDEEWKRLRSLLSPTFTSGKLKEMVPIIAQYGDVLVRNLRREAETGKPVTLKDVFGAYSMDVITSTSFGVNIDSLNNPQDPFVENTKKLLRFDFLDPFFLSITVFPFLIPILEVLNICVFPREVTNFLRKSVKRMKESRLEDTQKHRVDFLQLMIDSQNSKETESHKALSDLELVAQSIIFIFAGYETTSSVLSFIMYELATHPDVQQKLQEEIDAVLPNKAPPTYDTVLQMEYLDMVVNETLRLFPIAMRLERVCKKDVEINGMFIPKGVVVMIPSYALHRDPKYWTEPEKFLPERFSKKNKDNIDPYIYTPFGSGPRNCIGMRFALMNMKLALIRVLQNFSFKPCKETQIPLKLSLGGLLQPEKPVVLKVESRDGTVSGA

## Cc1ccc(-c2cc(=O)oc3cc(O[C@H](C)C(=O)N4CC5CCC(C4)N5C)ccc23)c(C)c1
[1]
  inhibition at 0.5 µM: 15%
[2]
  inhibition: Active
[3]
  Activity: 87.77%
[4]
  Activity: 9.15%
[5]
  Activity: 9.07%
[6]
  Activity: 3.7%
[7]
  Activity: 3.73%
[8]
  Activity: 0.28%
[9]
  Activity: 3.17%
[10]
  Activity: 5.11%
[11]
  Activity: 4.58%
[12]
  Activity: 4.46%
[13]
  Activity: inactive
[14]
  Activity: inactive
[15]
  Activity: inactive
[16]
  Activity: Dose-Dependent Effect
[17]
  inhibition: Active
[18]
  inhibition: Active
[19]
  inhibition: Active
[20]
  inhibition: Active
[21]
  IC50: 0.132 µM
[22]
  IC50: > 40 µM
[23]
  IC50: 30.8 µM
[24]
  solubility: 226 µg/mL (≈ 506 µM)
[25]
  Cmax: 364 ng/mL
[26]
  Cmax: 369 ng/mL
[27]
  AUC(0-t) at 24 h: 1830 ng·h/mL
[28]
  clearance: 38.2 mL/min/kg
[29]
  half-life: 2.3 h
[30]
  inhibition: Dose-Dependent Effect
[31]
  inhibition: Active
[32]
  Activity: Dose-Dependent Effect
[33]
  Activity: 54.82%
[34]
  Activity: 68.66%
[35]
  Activity: Active
[36]
  Activity: inactive
[37]
  Activity: inactive
[38]
  Activity: Non-Toxic
[39]
  Activity: Non-Toxic
